Assay results published in patent publication US20260125382A1, “COMPOUNDS FOR INHIBITING OR DEGRADING CDK2 AND/OR CDK9 AND MEDICINAL USE THEREOF” (KOREA RESEARCH INSTITUTE OF CHEMICAL TECHNOLOGY, priority 2022, published 2026).

Key:
CDK2 = molecular target: T1, CDK2 (Homo sapiens, UniProt P24941); experiment: CDK protein degradation activity (Western blotting), CDK2; format: cell-based; details: MDA-MB-231 cells, 16 hours, Western blot
T1 construct: endogenous in cells; host or cells: MDA-MB-231
Description: (§1) In order to evaluate the CDK protein degradation activity of the compounds according to the present invention, the following experiment was conducted.
(§2) MDA-MB-231 cells were seeded at 5×10^5 cells per well in a 6-well plate. The next day, the compounds were treated in each well to achieve final concentrations of 100 nM, 1 μM, and 10 μM. For the control group, an equal amount of DMSO was treated in the well as the compound. After 16 hours of treatment, cells were collected, and cell lysates were prepared using Triton X-100 lysis buffer (50 mM HEPES, pH 7.5, 40 mM NaCl, 1% Triton X-100, 1 mM EDTA, 1 mM EGTA, 10 mM pyrophosphate, 10 mM β-glycerophosphate, 50 mM NaF, 1 mM NaVO4, protease inhibitor). Cell lysates were quantified and separated by size using sodium dodecyl sulfate-polyacrylamide gel electrophoresis (SDS-PAGE). Western blotting was then performed using antibodies that recognize CDK2, CDK9, and tubulin, respectively. The results obtained by Western blotting were quantitatively analyzed using the ImageJ program, and representative images according to the experimental results are shown in FIG. 1.

CDK9 = molecular target: T2, CDK9 (Homo sapiens, UniProt P50750); experiment: CDK protein degradation activity (Western blotting), CDK9; format: cell-based; details: MDA-MB-231 cells, 16 hours, Western blot
T2 construct: endogenous in cells; host or cells: MDA-MB-231
T2 sequence (P50750 whole entry): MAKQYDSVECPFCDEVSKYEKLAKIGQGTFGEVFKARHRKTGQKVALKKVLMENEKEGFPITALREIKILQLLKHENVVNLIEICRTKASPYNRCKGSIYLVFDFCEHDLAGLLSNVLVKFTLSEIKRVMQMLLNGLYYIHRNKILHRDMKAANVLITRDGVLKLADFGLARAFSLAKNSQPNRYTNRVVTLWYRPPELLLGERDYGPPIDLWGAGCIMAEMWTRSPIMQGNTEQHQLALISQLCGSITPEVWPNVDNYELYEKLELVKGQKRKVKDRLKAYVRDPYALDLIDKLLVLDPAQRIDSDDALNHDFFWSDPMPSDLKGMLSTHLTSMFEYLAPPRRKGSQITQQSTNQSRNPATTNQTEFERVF
Description: as §1, §2

| SMILES | Enzyme degradation CDK2 (% remaining) @ 0.1 μM (CDK2) | Enzyme degradation CDK2 (% remaining) @ 10 μM (CDK2) | Enzyme degradation CDK9 (% remaining) @ 0.1 μM (CDK9) | Enzyme degradation CDK9 (% remaining) @ 1 μM (CDK9) | Enzyme degradation CDK9 (% remaining) @ 10 μM (CDK9) | Enzyme degradation CDK2 (% remaining) @ 1 μM (CDK2) |
| --- | --- | --- | --- | --- | --- | --- |
| O=C1CC[C@H](N2C(=O)c3cccc(NCC(=O)N4CCC(CCCN5CCN(c6ccc(Nc7ncnc8c7ncn8[C@H]7C[C@@H](NC(=O)Cc8ccccc8)C7)cc6)CC5)CC4)c3C2=O)C(=O)N1 [Compound 253, N-((1s,3s)-3-(6-((4-(4-(3-(1-((2-(2,6-dioxopiperidin-3-yl)-1,3-dioxoisoindolin-4-yl)glycyl)piperidin-4-yl)propyl)piperazin-1-yl)phenyl)amino)-9H-purin-9-yl)cyclobutyl)-2-phenylacetamide] | 20/—/20% | 20/—/20% | 0/0/0% | 0/0/0% | 0/0/0% |  |
| O=C1CC[C@H](N2C(=O)c3cc(F)c(N4CCN(C5CC6(CCN(c7ccc(Nc8ncnc9c8ncn9[C@H]8C[C@@H](NC(=O)Cc9ccccc9)C8)cc7)CC6)C5)CC4)cc3C2=O)C(=O)N1 [Compound 336, N-((1s,3s)-3-(6-((4-(2-(4-(2-(2,6-dioxopiperidin-3-yl)-6-fluoro-1,3-dioxoisoindolin-5-yl)piperazin-1-yl)-7-azaspiro[3.5]nonan-7-yl)phenyl)amino)-9H-purin-9-yl)cyclobutyl)-2-phenylacetamide] | 100% | 0% | 100% | 0% | 0% | 0% |
| O=C1CC[C@H](N2C(=O)c3cc(F)c(N4CCC(CCN5CCN(c6ccc(Nc7ncnc8c7ncn8C7CC(NC(=O)Cc8ccccc8)C7)cc6)CC5)CC4)cc3C2=O)C(=O)N1 (some centres unmarked) [Compound 323, N-((1s,3s)-3-(6-((4-(4-(2-(1-(2-(2,6-dioxopiperidin-3-yl)-6-fluoro-1,3-dioxoisoindolin-5-yl)piperidin-4-yl)ethyl)piperazin-1-yl)phenyl)amino)-9H-purin-9-yl)cyclobutyl)-2-phenylacetamide] | 60% | 40% | 0/0/0% | 0/0/0% | 0/0/0% | 50% |
| O=C1CC[C@H](N2C(=O)c3ccc(OCC(=O)N4CCN(CC5CCN(c6ccc(Nc7ncnc8c7ncn8C7CC(NC(=O)c8c(Cl)cccc8Cl)C7)cc6)CC5)CC4)cc3C2=O)C(=O)N1 (some centres unmarked) [Compound 325, 2,6-dichloro-N-((1s,3s)-3-(6-((4-(4-((4-(2-((2-(2,6-dioxopiperidin-3-yl)-1,3-dioxoisoindolin-5-yl)oxy)acetyl)piperazin-1-yl)methyl)piperidin-1-yl)phenyl)amino)-9H-purin-9-yl)cyclobutyl)benzamide] | 40% | 60% | 80% | 0% | 0% | 60% |
| Cc1cccc(C(=O)N[C@H]2C[C@@H](n3cnc4c(Nc5ccc(N6CCN(CC7CCN(C(=O)C8CN(c9ccc%10c(c9)C(=O)N([C@H]9CCC(=O)NC9=O)C%10=O)C8)CC7)CC6)cc5C)ncnc43)C2)n1 [Compound 448, N-((1s,3s)-3-(6-((4-(4-((1-(1-(2-(2,6-dioxopiperidin-3-yl)-1,3-dioxoisoindolin-5-yl)azetidin-3-carbonyl)piperidin-4-yl)methyl)piperazin-1-yl)-2-methylphenyl)amino)-9H-purin-9-yl)cyclobutyl)-6-methylpicolinamide] | 70/70/70% | 70/70/70% | 20/20/20% | 20/20/20% | 20/20/20% | 70/70/70% |
| O=C1CC[C@H](N2C(=O)c3cccc(OCC(=O)N4CCC(CN5CCC(CNc6ncnc7c6ncn7C6CC(NC(=O)c7c(Cl)cccc7Cl)C6)CC5)CC4)c3C2=O)C(=O)N1 (some centres unmarked) [Compound 168, 2,6-dichloro-N-((1s,3s)-3-(6-(((1-((1-(2-((2-(2,6-dioxopiperidin-3-yl)-1,3-dioxoisoindolin-4-yl)oxy)acetyl)piperidin-4-yl)methyl)piperidin-4-yl)methyl)amino)-9H-purin-9-yl)cyclobutyl)benzamide] | 50% | 10% | 80% | 40% | 10% | 10% |
| O=C1CCC(N2C(=O)c3ccc(NCC(=O)N4CCC(CN5CCC(CNc6ncnc7c6ncn7[C@H]6C[C@@H](NC(=O)c7c(Cl)cccc7Cl)C6)CC5)CC4)cc3C2=O)C(=O)N1 (some centres unmarked) [Compound 171, 2,6-dichloro-N-((1s,3s)-3-(6-(((1-((1-((2-(2,6-dioxopiperidin-3-yl)-1,3-dioxoisoindolin-5-yl)glycyl)piperidin-4-yl)methyl)piperidin-4-yl)methyl)amino)-9H-purin-9-yl)cyclobutyl)benzamide] | 20% | 10% | 0/0/0% | 0/0/0% | 0/0/0% | 10% |
| O=C1CCC(N2C(=O)C=C(N3CCC(C(=O)NC[C@H]4CC[C@H](CN5CCN(c6ccc(Nc7ncnc8c7ncn8[C@H]7C[C@@H](NC(=O)Cc8ccccc8)C7)cc6)CC5)CC4)CC3)C2=O)C(=O)N1 (some centres unmarked) [Compound 201, 1-(1-(2,6-dioxopiperidin-3-yl)-2,5-dioxo-2,5-dihydro-1H-pyrrol-3-yl)-N-(((1r,4r)-4-((4-(4-((9-((1s,3s)-3-(2-phenylacetamido)cyclobutyl)-9H-purin-6-yl)amino)phenyl)piperazin-1-yl)methyl)cyclohexyl)methyl)piperidin-4-carboxamide] | 50% | 50% | 10% | 10% | 0% | 70% |
| O=C(CNc1ccc2c(c1)C(=O)N(C1CCC(=O)NC1=O)C2=O)NC[C@H]1CC[C@H](CN2CCN(c3ccc(Nc4ncnc5c4ncn5[C@H]4C[C@@H](NC(=O)Cc5ccccc5)C4)cc3)CC2)CC1 (some centres unmarked) [Compound 220, 2-((2-(2,6-dioxopiperidin-3-yl)-1,3-dioxoisoindolin-5-yl)amino)-N-(((1r,4r)-4-((4-(4-((9-((1s,3s)-3-(2-phenylacetamido)cyclobutyl)-9H-purin-6-yl)amino)phenyl)piperazin-1-yl)methyl)cyclohexyl)methyl)acetamide] | 80% | 60% | 40% | 0% | 0% | 80% |
| O=C1CC[C@H](N2C(=O)c3ccc(N4CC(C(=O)N5CCC(CN6CCN(c7ccc(Nc8ncnc9c8ncn9[C@H]8C[C@@H](NC(=O)c9cccc(C(F)(F)F)n9)C8)cc7)CC6)CC5)C4)cc3C2=O)C(=O)N1 [Compound 469, N-((1s,3s)-3-(6-((4-(4-((1-(1-(2-(2,6-dioxopiperidin-3-yl)-1,3-dioxoisoindolin-5-yl)azetidin-3-carbonyl)piperidin-4-yl)methyl)piperazin-1-yl)phenyl)amino)-9H-purin-9-yl)cyclobutyl)-6-(trifluoromethyl)picolinamide] | 40/40/40% | 40/40/40% | 0/0/0% | 0/0/0% | 0/0/0% | 40/40/40% |
| O=C1CC[C@@H](c2ccc(OCC(=O)N3CCC(CCN4CCN(c5ccc(Nc6ncnc7c6ncn7C6CC(NC(=O)Cc7ccccc7)C6)cc5)CC4)CC3)cc2)C(=O)N1 (some centres unmarked) [Compound 433, N-((1s,3s)-3-(6-((4-(4-(2-(1-(2-(4-(2,6-dioxopiperidin-3-yl)phenoxy)acetyl)piperidin-4-yl)ethyl)piperazin-1-yl)phenyl)amino)-9H-purin-9-yl)cyclobutyl)-2-phenylacetamide] | 80% | 90% | 20% | 10% | 10% | 90% |
| Cc1cccc(C(=O)N[C@H]2C[C@@H](n3cnc4c(NC5CCN(CCCCCCNc6ccc7c(c6)C(=O)N([C@H]6CCC(=O)NC6=O)C7=O)CC5)ncnc43)C2)n1 [Compound 17, N-((1s,3s)-3-(6-((1-(6-((2-(2,6-dioxopiperidin-3-yl)-1,3-dioxoisoindolin-5-yl)amino)hexyl)piperidin-4-yl)amino)-9H-purin-9-yl)cyclobutyl)-6-methylpicolinamide] | 90% | 50% | 10% | 0% | 0% | 100% |
